US12209102B2, “Heterocyclic compounds and uses thereof” (Kumquat Biosciences Inc., priority 2022, dated 2025)

What was measured:
K-Ras G12V = target: T1, K-Ras G12V (Homo sapiens, UniProt P01116, G12V); test: HTRF resonance energy transfer assay, K-Ras G12V / SOS1 interaction; format: biochemical; settings: HTRF assay of Example 5; read-out: IC50 against K-Ras G12V
T1 construct: made in house; host or cells: E. coli BL21 (DE3)
Procedure, shortened: (§1)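 Read-out: HTRF 665/620 nm ratio (excitation 337 nm) after roughly 10 min or longer incubation, used to derive IC50. Donor anti-GST-Eu on GST-K-Ras; acceptor anti-6His-XL665 on His-hSOS1. Duplicate dose series from 10 μM down to 0.01 μM.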

SW620 cells = test: Ras cellular assay, growth of cells with K-Ras G12V mutation (CellTiter-Glo); format: cell-based; settings: Homo sapiens, SW-620; cell growth, Example 9, G12V mutation; read-out: IC50 against SW620 cells
Procedure, shortened: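 SW620 (K-Ras G12V) cells, e.g. 800/well in RPMI-1640 with 10% heat-inactivated FBS on standard or ultra-low attachment plates, were dosed the day after plating with e.g. a 10-point 3-fold series. Viability by CellTiter-Glo luminescence about 6 days later; IC50 from four-parameter fit.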

K-Ras G12S = target: T2, K-Ras G12S (Homo sapiens, UniProt P01116, G12S); test: HTRF resonance energy transfer assay, K-Ras G12S / SOS1 interaction; format: biochemical; settings: HTRF assay of Example 5; read-out: IC50 against K-Ras G12S
T2 construct: made in house; host or cells: E. coli BL21 (DE3)
Procedure, shortened: as §1

A549 cells = test: Ras cellular assay, growth of cells with K-Ras G12S mutation (CellTiter-Glo); format: cell-based; settings: Homo sapiens, cell growth, Example 9, G12S mutation, read-out: IC50 against A549 cells
Procedure, shortened: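 A549 cells (K-Ras G12S) in RPMI-1640 with 10% heat-inactivated FBS, seeded e.g. 800 per well in standard or ultra-low-attachment 384-well plates, treated next day with a dilution series (e.g. 10-point, 3-fold). Viability by CellTiter-Glo luminescence about 6 days later; IC50 from four-parameter fit.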

K-Ras WT = target: T3, K-Ras WT (Homo sapiens, UniProt P01116); test: HTRF resonance energy transfer assay, K-Ras WT / SOS1 interaction; format: biochemical; settings: HTRF assay of Example 5; read-out: IC50 against K-Ras WT
T3 construct: made in house; host or cells: E. coli BL21 (DE3)
Procedure, shortened: as §1

K-Ras G12D = target: T4, K-Ras G12D (Homo sapiens, UniProt P01116, G12D); test: HTRF resonance energy transfer assay, K-Ras G12D / SOS1 interaction; format: biochemical; settings: HTRF assay of Example 5; read-out: IC50 against K-Ras G12D
T4 construct: made in house; host or cells: E. coli BL21 (DE3)
Procedure, shortened: as §1

T4 sequence (P01116 1-188 isoform P01116-2 G12D): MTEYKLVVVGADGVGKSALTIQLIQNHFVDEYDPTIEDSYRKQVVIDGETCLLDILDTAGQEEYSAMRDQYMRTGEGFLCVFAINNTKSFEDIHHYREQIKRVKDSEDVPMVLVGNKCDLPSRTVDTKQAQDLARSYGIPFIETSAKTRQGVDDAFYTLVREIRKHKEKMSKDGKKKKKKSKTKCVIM
T3 sequence (P01116 1-188 isoform P01116-2): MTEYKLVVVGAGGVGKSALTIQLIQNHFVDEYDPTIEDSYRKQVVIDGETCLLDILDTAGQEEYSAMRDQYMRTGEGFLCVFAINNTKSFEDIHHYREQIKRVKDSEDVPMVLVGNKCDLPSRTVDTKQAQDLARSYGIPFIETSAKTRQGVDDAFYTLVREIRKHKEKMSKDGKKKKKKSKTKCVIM
T2 sequence (P01116 1-188 isoform P01116-2 G12S): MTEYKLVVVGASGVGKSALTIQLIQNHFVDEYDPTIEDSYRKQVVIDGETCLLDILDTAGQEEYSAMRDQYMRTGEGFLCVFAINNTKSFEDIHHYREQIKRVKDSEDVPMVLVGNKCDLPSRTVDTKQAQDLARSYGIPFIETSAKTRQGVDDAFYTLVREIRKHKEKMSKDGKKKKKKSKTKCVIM
T1 sequence (P01116 1-188 isoform P01116-2 G12V): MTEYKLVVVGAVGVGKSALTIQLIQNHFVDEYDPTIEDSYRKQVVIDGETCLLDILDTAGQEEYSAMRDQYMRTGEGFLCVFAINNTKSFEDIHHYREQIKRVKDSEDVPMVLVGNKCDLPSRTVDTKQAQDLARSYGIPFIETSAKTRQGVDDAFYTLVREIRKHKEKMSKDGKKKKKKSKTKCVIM

Compound | IC50 (K-Ras G12V) [µM] | IC50 (SW620 cells) [µM] | IC50 (K-Ras G12S) [µM] | IC50 (A549 cells) [µM] | IC50 (K-Ras WT) [µM] | IC50 (K-Ras G12D) [µM]
N#Cc1c(N)sc2c(F)ccc(-c3c(Cl)c4c5c(nc(OC[C@@]67CCCN6C[C@H](F)C7)nc5c3F)N(C3CCN(S(=O)(=O)C5CC5)C3)CCO4)c12 (stereo partly drawn) [Compound 922, 2-amino-4-(8-chloro-4-(1-(cyclopropylsulfonyl)pyrrolidin-3-yl)-10-fluoro-2-(((2R,7aS)-2—fluorotetrahydro-1H-pyrrolizin-7a(5H)-yl)methoxy)-5,6-dihydro-4H-[1,4]oxazepino[5,6,7-de]quinazolin-9-yl)-7-fluorobenzo[b]thiophene-3-carbonitrile] | < 0.1 | < 5 | < 0.1 | < 5 | < 0.1 | < 0.1
N#Cc1c(N)sc2c(F)ccc(-c3c(Cl)c4c5c(nc(OC[C@@]67CCCN6C[C@H](F)C7)nc5c3F)N(Cc3cccnc3)CCO4)c12 [Compound 897, 2-amino-4-(8-chloro-10-fluoro-2-(((2R,7aS)-2-fluorotetrahydro-1H-pyrrolizin-7a(5H)-yl)methoxy)-4-(pyridin-3-ylmethyl)-5,6-dihydro-4H-[1,4]oxazepino[5,6,7-de]quinazolin-9-yl)-7-fluorobenzo[b]thiophene-3-carbonitrile] | < 0.1 | < 5 | < 0.1 | < 5 | < 0.1 | < 0.1
CC(=O)NC1CCC(N2CCOc3c(Cl)c(-c4ccc(F)c5sc(N)c(C#N)c45)c(F)c4nc(OC[C@@]56CCCN5C[C@H](F)C6)nc2c34)C1 (stereo partly drawn) [Compound 781, N-(3-(9-(2-amino-3-cyano-7-fluorobenzo[b]thiophen-4-yl)-8-chloro-10-fluoro-2-(((2R,7aS)-2-fluorotetrahydro-1H-pyrrolizin-7a(5H)-yl)methoxy)-5,6-dihydro-4H-[1,4]oxazepino[5,6,7-de]quinazolin-4-yl)cyclopentyl)acetamide] | < 0.1 | < 5 | < 0.1 | < 5 | < 0.1 | < 0.1
CC(C1CC1)N1CCOc2c(Cl)c(-c3ccc(F)c4sc(N)c(C#N)c34)c(F)c3nc(OC[C@@]45CCCN4C[C@H](F)C5)nc1c23 (stereo partly drawn) [Compound 1054, 2-amino-4-(8-chloro-4-(1-cyclopropylethyl)-10-fluoro-2-(((2R,7aS)-2-fluorotetrahydro-1H-pyrrolizin-7a(5H)-yl)methoxy)-5,6-dihydro-4H-[1,4]oxazepino[5,6,7-de]quinazolin-9-yl)-7-fluorobenzo[b]thiophene-3-carbonitrile] | < 0.1 | < 5 | < 0.1 | < 5 | < 0.1 | < 0.1
N#Cc1c(N)sc2c(F)ccc(-c3c(Cl)c4c5c(nc(OC[C@@]67CCCN6C[C@H](F)C7)nc5c3F)N(C3CCN(CC(F)F)C3)CCO4)c12 (stereo partly drawn) [Compound 693, 2-amino-4-(8-chloro-4-(1-(2,2-difluoroethyl)pyrrolidin-3-yl)-10-fluoro-2-(((2R,7aS)-2-fluorotetrahydro-1H-pyrrolizin-7a(5H)-yl)methoxy)-5,6-dihydro-4H-[1,4]oxazepino[5,6,7-de]quinazolin-9-yl)-7-fluorobenzo[b]thiophene-3-carbonitrile] | < 0.1 | < 5 | < 0.1 | < 5 | < 0.1 | < 0.1
CC1Oc2c(Cl)c(-c3ccc(F)c4sc(N)c(C#N)c34)c(F)c3nc(OC[C@@]45CCCN4C[C@H](F)C5)nc(c23)N([C@@H]2CCOC2)C1C (stereo partly drawn) [Compound 741, 2-amino-4-(8-chloro-10-fluoro-2-(((2R,7aS)-2-fluorotetrahydro-1H-pyrrolizin-7a(5H)-yl)methoxy)-5,6-dimethyl-4-((R)-tetrahydrofuran-3-yl)-5,6-dihydro-4H-[1,4]oxazepino[5,6,7-de]quinazolin-9-yl)-7-fluorobenzo[b]thiophene-3-carbonitrile] | < 0.1 | < 5 | < 0.1 | < 5 | < 0.1 | < 0.1
COCC1CN(CC(F)F)c2nc(OC[C@@]34CCCN3C[C@H](F)C4)nc3c(F)c(-c4ccc(F)c5sc(N)c(C#N)c45)c(Cl)c(c23)O1 (stereo partly drawn) [Compound 1030, 2-amino-4-(8-chloro-4-(2,2-difluoroethyl)-10-fluoro-2-(((2R,7aS)-2-fluorotetrahydro-1H-pyrrolizin-7a(5H)-yl)methoxy)-6-(methoxymethyl)-5,6-dihydro-4H-[1,4]oxazepino[5,6,7-de]quinazolin-9-yl)-7-fluorobenzo[b]thiophene-3-carbonitrile] | < 0.1 | < 5 | < 0.1 | < 5 | < 0.1 | < 0.1
N#Cc1c(N)sc2c(F)ccc(-c3c(Cl)c4c5c(nc(OC[C@@]67CCCN6C[C@H](F)C7)nc5c3F)N(C3CCN(C(=O)C5CC5C#N)CC3)CCO4)c12 (stereo partly drawn) [Compound 703, 2-amino-4-(8-chloro-4-(1-(2-cyanocyclopropane-1-carbonyl)piperidin-4-yl)-10-fluoro-2-(((2R,7aS)-2-fluorotetrahydro-1H-pyrrolizin-7a(5H)-yl)methoxy)-5,6-dihydro-4H-[1,4]oxazepino[5,6,7-de]quinazolin-9-yl)-7-fluorobenzo[b]thiophene-3-carbonitrile] | < 0.1 | < 5 | < 0.1 | < 5 | < 0.1 | < 0.1
N#Cc1c(N)sc2c(F)ccc(-c3c(Cl)c4c5c(nc(OC[C@@]67CCCN6C[C@H](F)C7)nc5c3F)N(C3CCCN(C(=O)[C@@H]5N[C@H]5C5CC5)C3)CCO4)c12 (stereo partly drawn) [Compound 643, 2-amino-4-(8-chloro-4-(1-((2R,3S)-3-cyclopropylaziridine-2-carbonyl)piperidin-3-yl)-10-fluoro-2-(((2R,7aS)-2-fluorotetrahydro-1H-pyrrolizin-7a(5H)-yl)methoxy)-5,6-dihydro-4H-[1,4]oxazepino[5,6,7-de]quinazolin-9-yl)-7-fluorobenzo[b]thiophene-3-carbonitrile] | < 0.1 | < 5 | < 0.1 | < 5 | < 0.1 | < 0.1

Continued, values first:

IC50 (K-Ras G12V) [µM] | IC50 (SW620 cells) [µM] | IC50 (K-Ras G12S) [µM] | IC50 (A549 cells) [µM] | IC50 (K-Ras WT) [µM] | IC50 (K-Ras G12D) [µM] | Compound
< 0.1 | < 5 | < 0.1 | < 5 | < 0.1 | < 0.1 | C[C@H](Oc1nc2c3c(c(Cl)c(-c4ccc(F)c5sc(N)c(C#N)c45)c(F)c3n1)OCCN2C1CCOC1)[C@@H]1CCCN1C (stereo partly drawn) [Compound 924, 2-amino-4-(8-chloro-10-fluoro-2-((S)-1-((S)-1-methylpyrrolidin-2-yl)ethoxy)-4-(tetrahydrofuran-3-yl)-5,6-dihydro-4H-[1,4]oxazepino[5,6,7-de]quinazolin-9-yl)-7-fluorobenzo[b]thiophene-3-carbonitrile]
< 0.1 | < 5 | < 0.1 | < 5 | < 0.1 | < 0.1 | COCCN1CCC(N2CCOc3c(Cl)c(-c4ccc(F)c5sc(N)c(C#N)c45)c(F)c4nc(OC[C@@]56CCCN5C[C@H](F)C6)nc2c34)C1 (stereo partly drawn) [Compound 936, 2-amino-4-(8-chloro-10-fluoro-2-(((2R,7aS)-2-fluorotetrahydro-1H-pyrrolizin-7a(5H)-yl)methoxy)-4-(1-(2-methoxyethyl)pyrrolidin-3-yl)-5,6-dihydro-4H-[1,4]oxazepino[5,6,7-de]quinazolin-9-yl)-7-fluorobenzo[b]thiophene-3-carbonitrile]
< 0.1 | < 5 | < 0.1 | < 5 | < 0.1 | < 0.1 | N#Cc1c(N)sc2c(F)ccc(-c3c(Cl)c4c5c(nc(OCC67CCCN6C[C@H](F)C7)nc5c3F)N(C3CCCOCC3)CCO4)c12 (stereo partly drawn) [Compound 902, 2-amino-4-(8-chloro-10-fluoro-2-(((2R)-2-fluorotetrahydro-1H-pyrrolizin-7a(5H)-yl)methoxy)-4-(oxepan-4-yl)-5,6-dihydro-4H-[1,4]oxazepino[5,6,7-de]quinazolin-9-yl)-7-fluorobenzo[b]thiophene-3-carbonitrile]
< 0.1 | < 5 | < 0.1 | < 5 | < 0.1 | < 0.1 | N#Cc1c(N)sc2c(F)ccc(-c3c(Cl)c4c5c(nc(OC[C@@]67CCCN6C[C@H](F)C7)nc5c3F)N(C3CCCC3)CCO4)c12 [Compound 639, 2-amino-4-(8-chloro-4-cyclopentyl-10-fluoro-2-(((2R,7aS)-2-fluorotetrahydro-1H-pyrrolizin-7a(5H)-yl)methoxy)-5,6-dihydro-4H-[1,4]oxazepino[5,6,7-de]quinazolin-9-yl)-7-fluorobenzo[b]thiophene-3-carbonitrile]
